Among the data in patent US11554171B2, “Compounds and methods for the targeted degradation of bromodomain-containing proteins” (Arvinas Operations, Inc., priority 2015, dated 2023) are Emax and DC50 values, retold here.

For orientation: DC50 means the concentration at which degradation of the target reaches its halfway point.

Structures are written as SMILES. Some results are limits rather than exact numbers.

This assay relates to c-myc in 22RV-1 cells. Description: Human c-myc ELISA assay. Type of assay: cell-based. Conditions: Homo sapiens; for Emax: 22Rv1, 18 h, read-out: Degradation of BRD4: Maximum inhibition (%) c-Myc ELISA in 22RV1 cells; for DC50: 22Rv1, read-out: Degradation of BRD4: DC50 (uM) c-Myc ELISA in 22RV1 cells. The method in brief: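 22RV-1 cells treated 18 h with 8-point 1:3 compound dilutions (final top 300 nM or 1 μM, 0.1% DMSO). Cells lysed in RIPA buffer with protease/phosphatase inhibitors, and c-myc protein in cleared lysate quantified by ELISA against a standard curve. DC50 reported for c-myc suppression.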

Turning to `Cc1ncsc1-c1ccc([C@H](C)NC(=O)[C@@H]2C[C@@H](O)CN2C(=O)[C@@H](NC(=O)c2cc3cc(OCCCNC(=O)C[C@@H]4N=C(c5ccc(Cl)cc5)c5c(sc(C)c5C)-n5c(C)nnc54)ccc3o2)C(C)(C)C)cc1` [Example 170, (2S,4R)-1-[(2S)-2-{[5-(3-{2-[(9S)-7-(4-chlorophenyl)-4,5,13-trimethyl-3-thia-1,8,11,12-tetraazatricyclo[8.3.0.0^2,^6]trideca-2(6),4,7,10,12-pentaen-9-yl]acetamido}propoxy)-1-benzofuran-2-yl]formamido}-3,3-dimethylbutanoyl]-4-hydroxy-N-[(1S)-1-[4-(4-methyl-1,3-thiazol-5-yl)phenyl]ethyl]pyrrolidine-2-carboxamide], the Emax is 97% and the DC50 is below 0.01 µM.
For the compound `Cc1ncsc1-c1ccc(CNC(=O)[C@@H]2C[C@@H](O)CN2C(=O)[C@@H](NC(=O)COCCOCCOCCNC(=O)C[C@H]2N=C(c3ccc(Cl)cc3)c3c(sc(C)c3C)-n3c(C)nnc32)C(C)(C)C)cc1` [Example 104], the Emax was below 5% and the DC50 was above 1 µM.
For `Cc1ncsc1-c1ccc(CNC(=O)[C@@H]2C[C@@H](O)CN2C(=O)[C@@H](NC(=O)COc2ccc(O[C@H]3C[C@H](NC(=O)C[C@@H]4N=C(c5ccc(Cl)cc5)c5c(sc(C)c5C)-n5c(C)nnc54)C3)nc2)C(C)(C)C)cc1` [Example 140], in that order: 98% and below 0.01 µM.
As for `Cc1ncsc1-c1ccc([C@H](C)NC(=O)[C@@H]2C[C@@H](O)CN2C(=O)[C@@H](NC(=O)c2ccc(OC(C)CCNC(=O)C[C@@H]3N=C(c4ccc(Cl)cc4)c4c(sc(C)c4C)-n4c(C)nnc43)cn2)C(C)(C)C)cc1` (stereo partly shown) [Example 157], the Emax was 97% and the DC50 was below 0.01 µM.
For the compound `Cc1ncsc1-c1ccc(CNC(=O)[C@@H]2C[C@@H](O)CN2C(=O)[C@@H](NC(=O)COCCOCCOCCCOCCOCCNC(=O)C[C@@H]2N=C(c3ccc(Cl)cc3)c3c(sc(C)c3C)-n3c(C)nnc32)C(C)(C)C)cc1` [Example 8], the Emax amounted to 95.9% and the DC50 is 0.1 to 1 µM.
As to `Cc1ncsc1-c1ccc(CNC(=O)[C@@H]2C[C@@H](O)CN2C(=O)[C@@H](NC(=O)COCCCOCCCOc2ccc(C(C)(C)NC(=O)C[C@@H]3N=C(c4ccc(Cl)cc4)c4c(sc(C)c4C)-n4c(C)nnc43)cc2)C(C)(C)C)cc1` [Example 37], the Emax stood at 96% and the DC50 lay within 0.01 to 0.1 µM.
For `[2H]C([2H])([2H])C([C@H](NC(=O)c1cc2cc(O[C@H]3C[C@@H](NC(=O)C[C@@H]4N=C(c5ccc(Cl)cc5)c5c(sc(C)c5C)-n5c(C)nnc54)C3)ccc2o1)C(=O)N1C[C@H](O)C[C@H]1C(=O)N[C@@H](C)c1ccc(-c2scnc2C)cc1)(C([2H])([2H])[2H])C([2H])([2H])[2H]` [Example 364, (2S,4R)-1-[(2S)-3,3-bis(^2H3)methyl-2-({5-[(1,3-cis)-3-{2-[(9S)-7-(4-chlorophenyl)-4,5,13-trimethyl-3-thia-1,8,11,12-tetraazatricyclo[8.3.0.0^2,^6]trideca-2(6),4,7,10,12-pentaen-9-yl]acetamido}cyclobutoxy]-1-benzofuran-2-yl}formamido)(4,4,4-^2H3)butanoyl]-4-hydroxy-N-[(1S)-1-[4-(4-methyl-1,3-thiazol-5-yl)phenyl]ethyl]pyrrolidine-2-carboxamide], in that order: 100% and below 0.01 µM.
In the case of `Cc1ncsc1-c1ccc(CNC(=O)[C@@H]2C[C@@H](O)CN2C(=O)[C@@H](c2cc(OCCN3CC[C@H](NC(=O)C[C@@H]4N=C(c5ccc(Cl)cc5)c5c(sc(C)c5C)-n5c(C)nnc54)C3)no2)C(C)C)cc1` [Example 310], the Emax came out at 94% and the DC50 is below 0.01 µM.
For `Cc1ncsc1-c1ccc([C@H](C)NC(=O)[C@@H]2C[C@@H](O)CN2C(=O)[C@@H](NC(=O)COCCOCCCOc2ccc([C@H](C)NC(=O)C[C@H]3N=C(c4ccc(Cl)cc4)c4c(sc(C)c4C)-n4c(C)nnc43)cc2)C(C)(C)C)cc1` [Example 109], in that order: below 5% and above 1 µM.
For `Cc1ncsc1-c1ccc(CNC(=O)[C@@H]2C[C@@H](O)CN2C(=O)[C@@H](NC(=O)COCCOCCOCCNC(=O)C[C@@H]2N=C(c3ccc(Cl)cc3)c3c(sc(C)c3C)-n3c(C)nnc32)C(C)(C)C)cc1` [Example 42, (2S,4R)-1-[(2S)-2-(2-{2-[2-(2-{2-[(9S)-7-(4-chlorophenyl)-4,5,13-trimethyl-3-thia-1,8,11,12-tetraazatricyclo[8.3.0.0^2,^6]trideca-2(6),4,7,10,12-pentaen-9-yl]acetamido}ethoxy)ethoxy]ethoxy}acetamido)-3,3-dimethylbutanoyl]-4-hydroxy-N-{[4-(4-methyl-1,3-thiazol-5-yl)phenyl]methyl}pyrrolidine-2-carboxamide], in that order: 98.6% and 0.01 to 0.1 µM.
In the same order, the values of `Cc1ncsc1-c1ccc([C@H](C)NC(=O)[C@@H]2C[C@@H](O)CN2C(=O)[C@H](C(C)C)n2cc(-c3ccnc(O[C@H]4C[C@@H](NC(=O)C[C@@H]5N=C(c6ccc(Cl)cc6)c6c(sc(C)c6C)-n6c(C)nnc65)C4)n3)cn2)cc1` [Example 301] are 95% and 0.01 to 0.1 µM.
For the compound `Cc1ncsc1-c1ccc(CNC(=O)[C@@H]2C[C@@H](O)CN2C(=O)[C@@H](C(C)C)n2cc(-c3cccc(O[C@H]4C[C@H](NC(=O)C[C@@H]5N=C(c6ccc(Cl)cc6)c6c(sc(C)c6C)-n6c(C)nnc65)C4)c3)cn2)cc1` [Example 216], the Emax came to 14.4% and the DC50 was above 1 µM.
In the case of `Cc1ncsc1-c1ccc(CNC(=O)[C@@H]2C[C@@H](O)CN2C(=O)[C@@H](NC(=O)COCCCOCCCCCOc2ccc3c(c2)c2c(C(N)=O)cc(-c4c(C)noc4C)cc2n3Cc2ccccc2)C(C)(C)C)cc1` [Example 143, 9-benzyl-2-(dimethyl-1,2-oxazol-4-yl)-6-({5-[3-({[(2S)-1-[(2S,4R)-4-hydroxy-2-({[4-(4-methyl-1,3-thiazol-5-yl)phenyl]methyl}carbamoyl)pyrrolidin-1-yl]-3,3-dimethyl-1-oxobutan-2-yl]carbamoyl}methoxy)propoxy]pentyl}oxy)-9H-carbazole-4-carboxamide], the Emax came to 100% and the DC50 was below 0.01 µM.
As to `Cc1ncsc1-c1ccc(CNC(=O)[C@@H]2C[C@@H](O)CN2C(=O)[C@@H](NC(=O)COCCN2CCN(c3ccc(CNC(=O)C[C@@H]4N=C(c5ccc(Cl)cc5)c5c(sc(C)c5C)-n5c(C)nnc54)cc3)CC2)C(C)(C)C)cc1` [Example 60], the Emax worked out at 91% and the DC50 is 0.1 to 1 µM.
Take `Cc1cc(C(C(=O)N2C[C@H](O)C[C@H]2C(=O)NCc2ccc(Cl)cc2OCCOCCOCCOCCNC(=O)C[C@@H]2N=C(c3ccc(Cl)cc3)c3c(sc(C)c3C)-n3c(C)nnc32)C(C)C)on1` (stereo partly shown) [Example 361]: the Emax turned out to be 100% and the DC50 is 0.01 to 0.1 µM.
For `Cc1sc2c(c1C)C(c1ccc(Cl)cc1)=N[C@@H](CC(=O)N[C@H]1C[C@H](Oc3ccc(CC(=O)N[C@H](C(=O)N4C[C@H](O)C[C@H]4C(=O)N[C@@H](C)c4ccc(-n5ccnc5C)cc4)C(C)(C)C)cc3)C1)c1nnc(C)n1-2` [Example 272], in that order: 95.9% and 0.01 to 0.1 µM.
For `Cc1sc2c(c1C)C(c1ccc(Cl)cc1)=N[C@@H](CC(=O)N[C@H]1C[C@@H](Oc3cccc(-c4cnn([C@@H](C(=O)N5C[C@H](O)C[C@H]5C(=O)N[C@@H](C)c5ccc(-c6nccn6C)cc5)C(C)C)c4)c3)C1)c1nnc(C)n1-2` [Example 290], in that order: 15.5% and above 1 µM.
In the case of `Cc1ncsc1-c1ccc(CNC(=O)[C@@H]2C[C@@H](O)CN2C(=O)[C@@H](NC(=O)COCCCOc2ccc([C@@H](C)NC(=O)C[C@@H]3N=C(c4ccc(Cl)cc4)c4c(sc(C)c4C)-n4c(C)nnc43)cc2)C(C)(C)C)cc1` [Example 65], the Emax worked out at 95.4% and the DC50 lay within 0.01 to 0.1 µM.
For the compound `Cc1ncsc1-c1ccc([C@H](C)NC(=O)[C@@H]2C[C@@H](O)CN2C(=O)[C@@H](NC(=O)COc2cc(F)cc(O[C@H]3C[C@@H](NC(=O)C[C@@H]4N=C(c5ccc(Cl)cc5)c5c(sc(C)c5C)-n5c(C)nnc54)C3)c2)C(C)(C)C)cc1` [Example 209], the Emax was determined as 90% and the half-maximal degradation concentration (DC50) is below 0.01 µM.
Take `Cc1ncsc1-c1ccc(CNC(=O)[C@@H]2C[C@@H](O)CN2C(=O)[C@@H](NC(=O)COCCCOCCCOc2ccc(NC(=O)C[C@@H]3N=C(c4ccc(Cl)cc4)c4c(sc(C)c4C)-n4c(C)nnc43)c(F)c2)C(C)(C)C)cc1` [Example 20]: the Emax is 94% and the DC50 was in the range of 0.01 to 0.1 µM.
In the same order, the values of `Cc1ncsc1-c1ccc([C@H](C)NC(=O)[C@@H]2C[C@@H](O)CN2C(=O)[C@@H](C(C)C)n2cc(-c3cc(O[C@H]4C[C@@H](NC(=O)C[C@@H]5N=C(c6ccc(Cl)cc6)c6c(sc(C)c6C)-n6c(C)nnc65)C4)ccn3)cn2)cc1` [Example 303] are 9.8% and above 1 µM.
In the same order, the values of `Cc1ncsc1-c1ccc(CNC(=O)[C@@H]2C[C@@H](O)CN2C(=O)[C@@H](NC(=O)Cc2ccc(OCCNC(=O)C[C@@H]3N=C(c4ccc(Cl)cc4)c4c(sc(C)c4C)-n4c(C)nnc43)cc2)C(C)(C)C)cc1` [Example 80, (2S,4R)-1-[(2S)-2-{2-[4-(2-{2-[(9S)-7-(4-chlorophenyl)-4,5,13-trimethyl-3-thia-1,8,11,12-tetraazatricyclo[8.3.0.0^2,^6]trideca-2(6),4,7,10,12-pentaen-9-yl]acetamido}ethoxy)phenyl]acetamido}-3,3-dimethylbutanoyl]-4-hydroxy-N-{[4-(4-methyl-1,3-thiazol-5-yl)phenyl]methyl}pyrrolidine-2-carboxamide] are 97.5% and 0.01 to 0.1 µM.
In the same order, the values of `Cc1ncoc1-c1ccc([C@H](C)NC(=O)[C@@H]2C[C@@H](O)CN2C(=O)[C@@H](NC(=O)Cc2ccc(O[C@H]3C[C@H](NC(=O)C[C@@H]4N=C(c5ccc(Cl)cc5)c5c(sc(C)c5C)-n5c(C)nnc54)C3)cc2)C(C)(C)C)cc1` [Example 274] are 95.4% and below 0.01 µM.
